Measured values: publication PMC11558128 (Advanced Science, 2024)
Changes are numbered by the printed parent chain. Where two headings read alike, the source gives them in different places. Positions of bridges follow the written chain, without caps; N, C: chain ends. Residues, ends and D or L forms follow the SMILES beside them.

Key:
rKv4.2 = molecular target: T1, rKv4.2 (Rattus norvegicus, UniProt Q63881); experiment: cell-based; conditions: whole-cell patch clamp, HEK293T, n = 3-8, SEM
T1 construct: expressed in transfected cells; host or cells: HEK293T
T1 sequence (Q63881 1-630): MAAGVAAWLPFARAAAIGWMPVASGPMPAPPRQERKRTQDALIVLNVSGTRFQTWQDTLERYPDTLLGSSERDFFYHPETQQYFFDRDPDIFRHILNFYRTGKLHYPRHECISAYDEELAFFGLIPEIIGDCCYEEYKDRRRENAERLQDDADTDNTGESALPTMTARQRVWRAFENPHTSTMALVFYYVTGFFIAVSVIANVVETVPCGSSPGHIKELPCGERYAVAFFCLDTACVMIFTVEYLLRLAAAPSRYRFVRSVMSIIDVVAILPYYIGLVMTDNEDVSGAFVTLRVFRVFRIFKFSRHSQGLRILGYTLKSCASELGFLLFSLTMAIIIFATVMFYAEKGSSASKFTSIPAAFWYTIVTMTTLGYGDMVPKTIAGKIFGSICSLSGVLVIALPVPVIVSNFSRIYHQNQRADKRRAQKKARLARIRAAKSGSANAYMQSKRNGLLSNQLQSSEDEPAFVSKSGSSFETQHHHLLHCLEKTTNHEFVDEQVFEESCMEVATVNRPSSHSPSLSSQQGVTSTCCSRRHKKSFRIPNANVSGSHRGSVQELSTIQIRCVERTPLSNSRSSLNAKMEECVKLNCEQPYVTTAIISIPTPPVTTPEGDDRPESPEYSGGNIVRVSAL

rKv4.3 = molecular target: T2, rKv4.3 (Rattus norvegicus, UniProt Q62897); experiment: cell-based; conditions: whole-cell patch clamp, HEK293T; held at -80 mV, step to 0 mV; mean ± S.E.M., n = 3-8; SEM
T2 construct: expressed in transfected cells; host or cells: HEK293T
T2 sequence (Q62897 1-655): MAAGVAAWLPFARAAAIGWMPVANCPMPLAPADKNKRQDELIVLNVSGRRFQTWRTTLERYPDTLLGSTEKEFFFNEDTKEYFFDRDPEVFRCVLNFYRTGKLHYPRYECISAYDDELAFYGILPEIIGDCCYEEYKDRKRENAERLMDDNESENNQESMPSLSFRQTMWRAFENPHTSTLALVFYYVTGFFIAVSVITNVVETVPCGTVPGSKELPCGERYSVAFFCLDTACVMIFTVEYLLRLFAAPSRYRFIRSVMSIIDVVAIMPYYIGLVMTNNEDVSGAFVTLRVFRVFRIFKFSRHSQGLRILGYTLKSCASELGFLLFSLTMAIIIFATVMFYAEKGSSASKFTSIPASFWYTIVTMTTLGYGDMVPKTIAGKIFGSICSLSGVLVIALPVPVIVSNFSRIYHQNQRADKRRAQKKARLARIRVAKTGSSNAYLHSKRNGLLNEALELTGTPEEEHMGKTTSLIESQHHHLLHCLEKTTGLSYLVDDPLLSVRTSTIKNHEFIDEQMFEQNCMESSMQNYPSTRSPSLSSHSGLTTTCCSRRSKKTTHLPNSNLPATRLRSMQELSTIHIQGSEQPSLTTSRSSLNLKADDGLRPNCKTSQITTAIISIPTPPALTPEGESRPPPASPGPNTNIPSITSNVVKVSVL

rKv4.2 E283K = molecular target: T3, rKv4.2 E283K (Rattus norvegicus, UniProt Q63881, E283K); experiment: cell-based; conditions: mean ± SEM
T3 construct: expressed in transfected cells; host or cells: HEK293T
T3 sequence (Q63881 1-630 E283K): T1 sequence (Q63881 1-630) with E283K

rKv4.2 D284K = molecular target: T4, rKv4.2 D284K (Rattus norvegicus, UniProt Q63881, D284K); experiment: cell-based; conditions: mean ± SEM; SEM
T4 construct: expressed in transfected cells; host or cells: HEK293T
T4 sequence (Q63881 1-630 D284K): T1 sequence (Q63881 1-630) with D284K

[1] = system: other Kv channels (hKv1.1-1.5, rKv2.1, hKv3.1-3.4, mKv4.1, hKv7.2 and hERG); conditions: 1 µM toxin; n = 3-4

Row | Compound | IC50 (rKv4.2; held at -80 mV, step to 0 mV, mean ± S.E.M., read-out: IC50 for rKv4.2) [nM] | IC50 (rKv4.3) [nM] | IC50 (rKv4.2 E283K) [nM] | IC50 (rKv4.2 D284K) [nM] | effect on the current traces of other Kv channels [1] | IC50 (rKv4.2; mean ± SEM, read-out: IC50 on rKv4.2 WT) [nM]
1 | CC(C)C[C@@H]1NC(=O)[C@H](Cc2c[nH]c3ccccc23)NC(=O)[C@H](Cc2ccc(O)cc2)NC(=O)[C@H](CCCNC(=N)N)NC(=O)[C@@H](NC(=O)[C@@H](N)CCC(=O)O)CSSC[C@@H]2NC(=O)[C@@H]3CSSC[C@@H](C(=O)N[C@H](C(=O)N[C@@H](Cc4c[nH]c5ccccc45)C(=O)N[C@@H](CC(=O)O)C(=O)N[C@@H](Cc4c[nH]c5ccccc45)C(=O)N[C@H](C(=O)N[C@@H](Cc4ccccc4)C(N)=O)[C@@H](C)O)C(C)C)NC(=O)[C@H](Cc4c[nH]c5ccccc45)NC(=O)CNC(=O)[C@H](Cc4c[nH]cn4)NC(=O)[C@H](CCCCN)NC(=O)[C@@H]4CCCN4C(=O)[C@H](CO)NC(=O)[C@H](CSSC[C@H](NC(=O)[C@H]([C@@H](C)O)NC(=O)CNC1=O)C(=O)N[C@@H](CO)C(=O)N[C@@H](CCCCN)C(=O)N[C@@H]([C@@H](C)O)C(=O)NCC(=O)N[C@@H](CC(=O)O)C(=O)N3)NC(=O)[C@H](CO)NC(=O)[C@H](CC(C)C)NC(=O)[C@H](Cc1c[nH]cn1)NC(=O)[C@H](CO)NC2=O [HNTX-VIIa] (H-ECRYWLGTCSKTGDCCSHLSCSPKHGWCVWDWTF-NH2; disulfide 2-16, 9-21, 15-28) | 18 ± 3.2 | 130 ± 14.5 | 62 ± 13 | 47 ± 6 | no obvious or only minimal effect | –
2 | CC[C@H](C)[C@@H]1NC(=O)[C@@H]2CSSC[C@@H]3NC(=O)[C@H](C(C)C)NC(=O)[C@H](CC(C)C)NC(=O)[C@H](CC(N)=O)NC(=O)[C@@H]4CCCN4C(=O)[C@H](CCCNC(=N)N)NC(=O)[C@H](CSSC[C@H](NC(=O)[C@@H](N)CC(=O)O)C(=O)N[C@@H](CC(C)C)C(=O)NCC(=O)N[C@@H](C)C(=O)N[C@@H](Cc4ccccc4)C(=O)N[C@@H](CCCNC(=N)N)C(=O)N[C@@H](CCCCN)C(=O)N2)NC(=O)[C@H](CSSC[C@@H](C(=O)N[C@@H](CCCCN)C(=O)N[C@@H](Cc2ccc(O)cc2)C(=O)N[C@H](C(=O)N[C@@H](Cc2ccccc2)C(N)=O)C(C)C)NC(=O)[C@H](Cc2c[nH]c4ccccc24)NC(=O)[C@H](CCCNC(=N)N)NC(=O)[C@H](Cc2cnc[nH]2)NC(=O)[C@H](CC(C)C)NC(=O)[C@H](CCCNC(=N)N)NC(=O)[C@H](CO)NC3=O)NC(=O)[C@H](CCCCN)NC(=O)[C@H](CC(=O)O)NC(=O)[C@H](CC(N)=O)NC(=O)[C@H](CC(=O)O)NC(=O)[C@@H]2CCCN2C1=O [mGpTx1] (H-DCLGAFRKCIPDNDKCCRPNLVCSRLHRWCKYVF-NH2; disulfide 2-17, 9-23, 16-30) | – | 56 ± 4.8 | 646 ± 135 | 663 ± 179 | no obvious or only minimal effect | 81 ± 16
